Data: paper PMC6556873, “Rapid Covalent-Probe Discovery by Electrophile-Fragment Screening” (Journal of the American Chemical Society, 2019)
Read-outs that look alike come from different tables or passages of the source.

Experiments:
in vitro [1] = assay: in vitro; set-up: species or system HB2, CCD841; settings: human, hek293 cells
NUDT7 = target: T1, NUDT7 (Homo sapiens, UniProt P0C024); set-up: Intact protein LC/MS covalent labelling, fragments in pools of five, 200 uM each, 4 °C; settings: 24 h, 4 °C, pool of five; 200 µM; covalent
T1 construct: residues 14-235, E. coli, pNIC28-Bsa4, N-terminal His6 tag removed by TEV, construct 26672 Da

NNMT (hNNMT) = target: T2, NNMT (hNNMT) (Homo sapiens, UniProt P40261); set-up: Intact protein LC/MS covalent labelling, fragments in pools of five, 200 uM each, 4 °C; settings: 24 h, 4 °C, pool of five; 200 µM; covalent
T2 construct: wild type, N-terminal His6 tag kept (no cleavage described), E. coli, construct 31248 Da
T2 sequence (P40261 1-264): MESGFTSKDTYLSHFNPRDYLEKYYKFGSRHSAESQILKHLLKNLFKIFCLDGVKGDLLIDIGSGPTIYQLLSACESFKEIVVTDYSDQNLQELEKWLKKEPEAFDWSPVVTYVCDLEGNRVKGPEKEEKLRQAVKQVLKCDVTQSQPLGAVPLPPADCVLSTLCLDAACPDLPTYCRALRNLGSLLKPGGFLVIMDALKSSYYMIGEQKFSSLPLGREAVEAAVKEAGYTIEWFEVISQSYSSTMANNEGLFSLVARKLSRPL

BSA = target: T3, BSA (Bos taurus, UniProt P02769); set-up: Intact protein LC/MS covalent labelling, fragments in pools of five, 200 uM each, 4 °C; settings: 24 h, 4 °C, pool of five; 200 µM; covalent
T3 construct: gene ALB

PCAF = target: T4, PCAF (Homo sapiens, UniProt Q92831); set-up: Intact protein LC/MS covalent labelling, fragments in pools of five, 200 uM each, 4 °C; settings: 24 h, 4 °C, pool of five; 200 µM; covalent
T4 construct: gene KAT2B

in vitro [2] = assay: in vitro; set-up: species or system CCD841, HEK293; settings: human, hb2 cells, read-out: HB-2 Cells Viability (%)
in vitro [3] = assay: in vitro; set-up: species or system HB2, HEK293; settings: human, ccd841 cells
OTUB2 (OTUB2A) = target: T5, OTUB2 (OTUB2A) (Homo sapiens, UniProt Q96DC9); set-up: Intact protein LC/MS covalent labelling, fragments in pools of five, 200 uM each, 4 °C; settings: 24 h, 4 °C, pool of five; 200 µM; covalent
T5 construct: full length residues 1-234, E. coli BL21(DE3)-R3, His tag removed by TEV, construct 27312 Da
T5 sequence (Q96DC9 1-234): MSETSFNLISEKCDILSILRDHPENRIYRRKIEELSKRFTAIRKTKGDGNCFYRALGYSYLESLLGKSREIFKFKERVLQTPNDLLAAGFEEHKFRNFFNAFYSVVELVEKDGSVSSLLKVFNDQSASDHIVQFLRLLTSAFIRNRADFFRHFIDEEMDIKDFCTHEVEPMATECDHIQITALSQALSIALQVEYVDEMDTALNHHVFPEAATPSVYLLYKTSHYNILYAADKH

T1 sequence (P0C024 14-235): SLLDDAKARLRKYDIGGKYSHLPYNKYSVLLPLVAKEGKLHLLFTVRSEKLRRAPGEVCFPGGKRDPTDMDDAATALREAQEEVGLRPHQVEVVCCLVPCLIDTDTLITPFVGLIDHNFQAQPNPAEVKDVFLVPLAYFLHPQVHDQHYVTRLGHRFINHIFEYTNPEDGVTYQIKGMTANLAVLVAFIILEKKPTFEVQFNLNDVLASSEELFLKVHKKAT
T3 sequence (P02769 whole entry, the tested form may be a part): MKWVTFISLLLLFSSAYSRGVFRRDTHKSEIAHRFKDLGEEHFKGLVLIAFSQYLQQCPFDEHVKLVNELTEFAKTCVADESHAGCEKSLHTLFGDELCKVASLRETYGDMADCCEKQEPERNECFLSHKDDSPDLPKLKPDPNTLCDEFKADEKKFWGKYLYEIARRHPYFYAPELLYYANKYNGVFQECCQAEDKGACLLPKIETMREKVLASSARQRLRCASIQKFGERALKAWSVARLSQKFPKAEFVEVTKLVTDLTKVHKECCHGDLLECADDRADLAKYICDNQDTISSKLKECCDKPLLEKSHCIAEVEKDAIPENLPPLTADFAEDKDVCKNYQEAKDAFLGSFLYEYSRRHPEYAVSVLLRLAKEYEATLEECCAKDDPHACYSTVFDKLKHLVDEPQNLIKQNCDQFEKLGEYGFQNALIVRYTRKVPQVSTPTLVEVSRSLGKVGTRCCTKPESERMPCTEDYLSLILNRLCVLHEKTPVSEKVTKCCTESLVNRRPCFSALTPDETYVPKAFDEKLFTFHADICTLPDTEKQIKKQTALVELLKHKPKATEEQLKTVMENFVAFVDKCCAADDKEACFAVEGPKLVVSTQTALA
T4 sequence (Q92831 whole entry, the tested form may be a part): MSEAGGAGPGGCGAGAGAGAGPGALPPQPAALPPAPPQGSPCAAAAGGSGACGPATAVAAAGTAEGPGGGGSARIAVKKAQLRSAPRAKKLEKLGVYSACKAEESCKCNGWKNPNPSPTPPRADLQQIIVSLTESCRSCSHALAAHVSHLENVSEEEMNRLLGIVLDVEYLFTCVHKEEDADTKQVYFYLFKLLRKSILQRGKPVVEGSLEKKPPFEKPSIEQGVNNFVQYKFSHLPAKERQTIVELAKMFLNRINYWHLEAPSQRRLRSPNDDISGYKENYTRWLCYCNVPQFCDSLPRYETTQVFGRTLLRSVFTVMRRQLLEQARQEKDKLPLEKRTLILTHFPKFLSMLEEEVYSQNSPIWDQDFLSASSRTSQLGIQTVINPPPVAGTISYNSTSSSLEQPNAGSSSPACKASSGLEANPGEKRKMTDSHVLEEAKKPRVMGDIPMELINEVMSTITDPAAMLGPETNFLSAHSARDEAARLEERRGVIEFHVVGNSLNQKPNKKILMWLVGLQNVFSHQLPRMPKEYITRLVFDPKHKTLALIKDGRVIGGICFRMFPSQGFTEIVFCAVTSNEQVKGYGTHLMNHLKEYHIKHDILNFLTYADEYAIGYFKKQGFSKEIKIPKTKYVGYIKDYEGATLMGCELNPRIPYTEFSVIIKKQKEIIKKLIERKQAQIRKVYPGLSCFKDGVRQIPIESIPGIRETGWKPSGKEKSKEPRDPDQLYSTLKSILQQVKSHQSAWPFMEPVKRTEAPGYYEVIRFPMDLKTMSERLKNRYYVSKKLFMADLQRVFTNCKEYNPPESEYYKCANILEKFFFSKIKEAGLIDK

| SMILES | viability at 48 h, 10 µM (in vitro [1]) [%] | NUDT7 (NUDT7) | NNMT (NNMT (hNNMT)) | BSA (BSA) | PCAF (PCAF) | viability at 48 h, 10 µM (in vitro [2]) [%] | viability at 48 h, 10 µM (in vitro [3]) [%] | OTUB2 (OTUB2 (OTUB2A)) |
| --- | --- | --- | --- | --- | --- | --- | --- | --- |
| C=CC(=O)Nc1ccc(N(C)C)cc1 [PCM-0102461] | 81.3 | 0 | 0.2 | 0 | 0 | 102 | 111 | – |
| C=CC(=O)Nc1cccc(F)c1 [PCM-0102922] | – | 0 | 0 | 0.19 | 0 | – | – | 0 |
| Cc1ccccc1CNC(=O)CCl [PCM-0102253] | 93.4 | 0 | 0.2 | 0 | 0 | 99.6 | 86.6 | – |
| C=CC(=O)N1CCC(c2nc(C(F)(F)F)c[nH]2)CC1 [PCM-0102513] | 111 | 0 | 0.22 | 0 | 0 | 95.7 | 99.4 | – |
| CC1CCC(N(C(=O)CCl)C2CC2)CC1 (stereo not drawn) [PCM-0102792] | 6.8 | 0.13 | 0.21 | 0 | 0 | 11.4 | 8.8 | – |
| C=CC(=O)NC1CCCN(C(=O)OC)C1 (stereo not drawn) [PCM-0102526] | 90.7 | 0 | 0.22 | 0 | 0 | 101 | 106 | – |
| O=C(CCl)Nc1cc2c(cc1Cl)C(=O)c1ccccc1C2=O [PCM-0102757] | 22.5 | 0.12 | 0 | 0 | 0 | 1.4 | 58.4 | – |
| C=CC(=O)NCc1ccc2c(c1)C(C)(C)C(=O)N2 [PCM-0102570] | 92 | 0 | 0.21 | 0 | 0 | 107 | 110 | – |
| O=C(CCl)NC1CCCCCCC1 [PCM-0102318] | 66.1 | 0 | 0 | 0 | 0 | 86.6 | 92.1 | – |
| O=C(CCl)N1CCC(Cc2ccccc2)CC1 [PCM-0102492] | – | 0.18 | 0.51 | 0 | 0 | – | – | 0.18 |
| N#CC1(NC(=O)CCl)CCCC1 [PCM-0102136] | 44 | 0 | 0 | 0 | 0 | 70 | 61.1 | – |
| O=C(CCl)Nc1ccc(N2CCCCC2)nc1 [PCM-0102812] | 4.4 | 0.14 | 0.53 | 0 | 0 | 32.5 | 61.5 | – |
| C=CC(=O)N1CCNC(=O)C1c1cccs1 (stereo not drawn) [PCM-0102597] | 81 | 0 | 0 | 0 | 0 | 103 | 113 | – |
| C=CC(=O)Nc1cccc(OC)c1 [PCM-0102800] | – | 0 | 0 | 0 | 0 | – | – | 0 |
| O=C(CCl)Nc1ccc2c(c1)NC(=O)CO2 [PCM-0102890] | – | 0.08 | 0.22 | 0 | 0 | – | – | 0.32 |
| Cc1cc(C)cc(NC(=O)CCl)c1 [PCM-0102394] | 22.3 | 0 | – | 0 | 0 | 31.4 | 69.9 | 0.22 |
| N#Cc1c(NC(=O)CCl)sc2c1CCC2 [PCM-0102452] | 96.6 | 0 | – | 0 | 0 | 87.2 | 93.5 | 0.07 |
| COC(=O)c1c(NC(=O)CCl)sc2c1CCCCC2 [PCM-0102200] | 21.8 | 0.11 | – | 0 | 0 | 49.5 | 80.8 | 0 |
| CCN1CCC(NC(=O)CCl)CC1.Cl [PCM-0102103] | 66.8 | 0 | – | 0 | 0 | 96 | 84.1 | 0 |
| CCN(C(=O)CCl)C1CC1 [PCM-0102594] | 92.7 | 0 | – | 0 | 0 | 100 | 95.2 | 0 |
| O=C(CCl)Nc1ccc([N+](=O)[O-])cc1Cl [PCM-0102392] | 43.8 | 0.16 | – | 0 | 0 | 43.5 | 53.9 | 0.21 |
| COC(=O)C1(NC(=O)CCl)CCC(C)CC1 (stereo not drawn) [PCM-0102827] | 93.6 | 0 | – | 0 | 0 | 102 | 96.8 | 0 |
| Cl.O=C(CCl)Nc1ccc(N2CCCC2)cc1 [PCM-0102670] | 30.3 | 0 | – | 0 | 0 | 35 | 41.8 | 0.48 |
